The numbers were not newly measured in patent US12280031B2, “Teriflunomide topical pharmaceutical compositions” (APRAMITHA INNOVATIONS PRIVATE LIMITED, priority 2018, dated 2025), which cites them from elsewhere.

Data set [1] concerns patients. The settings on record: oral teriflunomide, dose-dependent.

Usually pKa stands for the pH at which an ionisable group is half protonated. Turning to `C/C(O)=C(\C#N)C(=O)Nc1ccc(C(F)(F)F)cc1` [Teriflunomide, (Z)-2-cyano-3-hydroxy-but-2-enoic acid-(4′-trifluoromethylphenyl)-amide], the pKa is on record as 5.2. For the same molecule, the solubility in water result (water) is “very slightly soluble”. The adverse effects result in data set [1] was “nausea, diarrhoea, hair thinning/decreased hair density, and elevated alanine aminotransferase (ALT) levels”.
